Reference: patent publication US9044465B2, “Use of analgesic potentiating compounds to potentiate the analgesic properties of an analgesic compound” (priority 2008, dated 2015)

Legend:
[1] = system: patients with acute sore throat and pharyngitis; assay: Definite Improvement Level (DIL), same study; settings: single oral dose, placebo 11.1%; for patients who achieved their own Definite Improvement Level on the TSS: Throat Soreness Scale
Protocol: A randomized, double-blind, placebo-controlled single-dose study was performed. In order to be eligible for the study, patients were required to have a history of an acute sore throat and physical evidence of pharyngitis. A total of 99 patients who met pre-specified inclusion and exclusion criteria, including moderate to severe throat pain intensity, as measured by a score≧7 on the Throat Soreness Scale (TSS), were admitted to the study.
At this visit they were shown each baseline rating scale and asked to indicate which level represented “definite improvement” to them (Definite Improvement Level), the Diary was reviewed for completeness by the Study Nurse, and ongoing evaluation and treatment were provided, if necessary, per standard clinic procedures.
After the patient is shown his/her completed Baseline Throat Soreness Scale, the Study Nurse will point to the number which the patient marked at Baseline and instruct the patient:
“Starting at this level with your sore throat, at and below which number means definite improvement to you?”
Next, the Study Nurse will separately show the patient his/her Baseline Difficulty Swallowing Scale, Swollen Throat Scale, Difficulty Talking Scale, and each of the 10 Quality-of-Pain Scales, with the same instructions for each scale.
Analyses were performed on all 99 patients (“intent-to-treat analyses”). […] Definite Improvement Level comparisons were performed using Fisher's Exact Test. Correlations between each new rating scale and the TSS were performed using Spearman Rank Correlation.

[2] = system: patients with acute sore throat and pharyngitis; assay: Improvement Assessment (IA), same study; type: in vivo, human; settings: single oral dose; for patients who achieved at least some improvement within 30 minutes (IA): first 30 minutes, placebo 1/9; for time from which IA scores separated/differed from placebo: improvement at individual time points; for patients who achieved at least 50% improvement over 6 hours (IA): over the 6-hour treatment period, placebo 2/9; for patients who achieved at least some improvement within 1 hour (IA): placebo 4/9
From the text: (§1) A total of 99 patients who met pre-specified inclusion and exclusion criteria, including moderate to severe throat pain intensity, as measured by a score≧7 on the Throat Soreness Scale (TSS), were admitted to the study.
(§2) There were 9 patients randomly assigned to each treatment group.
(§3) After administration of the assigned study medication, patients completed (1) the Throat Soreness Scale, (2) the Swollen Throat Scale, (3) the Difficulty Swallowing Scale, and (4) the Improvement Assessment (IA) every 15 minutes up to 2 hours. Measurements on the Difficulty Talking Scale and the Quality-of-Pain Scales were obtained after these four assessments at 60 minutes and at 2 hours after treatment.
(§4) After these 2nd hour assessments, patients were discharged from the clinic with a Diary for entering responses on the Throat Soreness Scale, Swollen Throat Scale, Difficulty Swallowing Scale, Difficulty Talking Scale, and Improvement Assessment at 3, 4, 5, and 6 hours. After the 6 hour assessments, patients completed the Quality-of-Pain Scales.
The patient will grade the improvement of his/her throat at 15, 30, 45, 60, 75, 90, 105, and 120 minutes, and at 3, 4, 5, and 6 hours post dose using a 5-category transitional scale. The patient will be instructed:
“Considering how your throat felt before you took the study medicine, circle the response that best describes how your throat is now.”
• Grading • no improvement • some improvement • 50% improvement • definite improvement • 100% improvement Data from this scale will be transcribed onto the appropriate Summary Data CRFs. Definite Improvement Level (DIL)

[3] = system: patients with acute sore throat and pharyngitis; assay: Throat Soreness Scale (TSS), randomized double-blind placebo-controlled single-dose study; type: in vivo, human; settings: single oral dose; for time from which TSS scores separated/differed from placebo: throat soreness difference at individual time points; for reduction in throat soreness (TSS) compared to placebo over 6 hours: 9 patients per group, vs placebo
Protocol: as §1, §2
They were discharged home for hourly assessments up to 6 hours post-dose. Patients were allowed alternative analgesic medication at any time during the study.
(§5) The Throat Soreness Scale (TSS), Swollen Throat Scale (SwoTS), Difficulty Swallowing Scale (DSS), Difficulty Talking Scale (DTS), and other Quality-of-Pain Scales were completed at Baseline (immediately pre-treatment). Each of these measurement instruments is a 0-10 ordinal scale (see TEST PROTOCOL below).
as §3, §4
The patient will be asked to evaluate his/her throat soreness using a 0-to-10 ordinal scale at Baseline as well as at 15, 30, 45, 60, 75, 90, 105 and 120 min and then hourly through 6 hours. The patient will be requested to swallow and instructed:
The primary endpoint variable is the Summed Difference in Throat Soreness at 6 hours, which is based on the Throat Soreness Scale. The patient will be asked to evaluate his/her throat soreness, using a 0-to-10 ordinal scale at baseline and at 15, 30, 45, 60, 75, 90, 105 minutes and 2, 3, 4, 5, and 6 hours. At each time point post-dose, a difference is calculated between the throat soreness at that time and the patient's baseline throat soreness. The time-weighted Summed Difference in Throat Soreness at each time point is calculated as the sum of the differences from baseline until that time point.

[4] = system: patients with acute sore throat and pharyngitis; assay: Difficulty Swallowing Scale (DSS), same study; type: in vivo, human; settings: single oral dose, vs placebo
From the text: as §1, §2, §5, §3
as §4, with “Scales. […]” for “Scales.”

[5] = system: patients with acute sore throat and pharyngitis; assay: Quality of Pain Index (QPI, 12 qualities of throat pain), same study; type: in vivo, human; settings: single oral dose, vs placebo
From the text: as §1, §2, §3, §4
The patient will be instructed to swallow and instructed: […]

[6] = system: patients with acute sore throat and pharyngitis; assay: Difficulty Talking Scale (DTS), same study; type: in vivo, human; settings: single oral dose, vs placebo
From the text: as §1, §2, §5, §3
as §4, with “Scales. […]” for “Scales.”

[7] = system: patients with acute sore throat and pharyngitis; assay: Throat Function Index (TFI: swallowing and talking), same study; type: in vivo, human; settings: single oral dose, vs placebo
From the text: as §1, §2
**Difficulty Swallowing and Difficulty Talking comprise the 20-point Throat Function Index.

[8] = system: patients with acute sore throat and pharyngitis; assay: Swollen Throat Scale (SwoTS), same study; type: in vivo, human; settings: single oral dose, vs placebo
From the text: as §1, §2, §5, §3
as §4, with “Scales. […]” for “Scales.”

| Structure (SMILES) | patients who achieved their own Definite Improvement Level on the TSS [1] [%] | patients who achieved their own Definite Improvement Level on the "It hurts" Quality-of-Pain Scale [1] [%] | patients who achieved their own Definite Improvement Level on the Difficulty Swallowing Scale [1] [%] | patients who achieved at least some improvement within 30 minutes (IA) [2] | time from which IA scores separated/differed from placebo [2] [min] | patients who achieved at least 50% improvement over 6 hours (IA) [2] | patients who achieved at least some improvement within 1 hour (IA) [2] | time from which TSS scores separated/differed from placebo [3] [min] | reduction in difficulty swallowing (DSS) compared with placebo over 6 hours [4] | reduction in throat soreness (TSS) compared to placebo over 6 hours [3] | reduction in the QPI compared with placebo over 6 hours [5] | reduction in difficulty talking (DTS) compared with placebo over 6 hours [6] | reduction in the TFI compared with placebo over 6 hours [7] | reduction in throat swelling (SwoTS) compared with placebo over 6 hours [8] |
| --- | --- | --- | --- | --- | --- | --- | --- | --- | --- | --- | --- | --- | --- | --- |
| Cc1ccc(-c2cc(C(F)(F)F)nn2-c2ccc(S(N)(=O)=O)cc2)cc1 [celecoxib] | 77.7 | 55.6 | 66.7 | 3/9 | 45 | 8/9 | 7/9 | 30 |  |  |  |  |  |  |
| CC(C)Cc1ccc(C(C)C(=O)O)cc1 (centres unmarked) [ibuprofen] | 44.4 | 33.3 | 44.4 | 6/9 | 30 | 4/9 | 9/9 | 30 | greater reduction in difficulty swallowing compared with placebo | trend |  |  |  |  |
| COc1ccc2cc([C@H](C)C(=O)O)ccc2c1 [naproxen, naproxen sodium] | 22.2 | 33.3 | 33.3 | 4/9 | 45 | 4/9 | 7/9 | 30 |  | differentiated from placebo |  |  |  |  |
| CC(=O)Nc1ccc(O)cc1 [acetaminophen] | 44.4 | 55.6 | 55.6 | 8/9 | 30 | 7/9 | 9/9 | 15 | significant difference | significantly greater reduction in throat soreness compared to placebo | significantly differentiated from placebo | significant | significantly greater reduction in the TFI | significantly differentiated from placebo |
